Data on 15 molecules can be found in US20040097594A1 (priority 1998, published 2004).

One experiment concerns the target HIV-1 protease (Human immunodeficiency virus type 1 group M subtype B, UniProt P04585). The experiment is described as follows: biochemical. As to conditions: HIV-1 protease; upper line of each compound's entry; read-out: Ki (enzyme).
Another experiment has as its system HIV-1 (strain IIIB). Description: microbe, parasite or virus in culture. In kind it is cell-based. As to conditions: Human immunodeficiency virus 1, 120 h; MT4 cells infected with HIV-1 strain IIIB, 5 days; lower line of each compound's entry; read-out: IC50 (MT-4 cells).

SMILES strings stand for the structures.

One may read the Ki as the equilibrium dissociation constant of an inhibitor or competing ligand from its target. For orientation: IC50 means the point on the concentration scale where inhibition reaches its midpoint. Turning to `Nc1cccc(S(=O)(=O)N(C[C@@H](O)[C@H](Cc2ccccc2)NC(=O)O[C@H]2CCOC2)OC2CCCC2)c1` [Compound 27, (3S)tetrahydro-3-furanyl N-(1S,2R)-3-[[(3-aminophenyl)sulfonyl](cyclopentyloxy)amino]-1-benzyl-2-hydroxypropylcarbamate], the Ki at HIV-1 protease was less than 1 nM. In the experiment with HIV-1 (strain IIIB), the IC50 is 500 to 1000 nM.
`O=C(O)CNc1cccc(S(=O)(=O)N(CC(O)C(Cc2ccccc2)NC(=O)OC2COC3OCCC23)OC2CCCC2)c1` [Compound 35, 2-2-(3-[[(2R,3S)-3-([(3R,3aS,6aR)hexahydrofuro[2,3-b]furan-3-yloxy]carbonylamino)-hydroxy-4-phenylbutyl](cyclopentyloxy)amino]sulfonylanilino)acetic acid and 2-2-(3-[[(2R,3S)-3-([(3S,3aR,6aS)hexahydrofuro[2,3-b]furan-3-yloxy]carbonylamino)-hydroxy-4-phenylbutyl](cyclopentyloxy)amino]sulfonylanilino)acetic acid]: at HIV-1 protease, the Ki was less than 1 nM. The IC50 with HIV-1 (strain IIIB) is more than 1000 nM.
In the same order, the values of `O=C(NC(Cc1ccccc1)C(O)CN(OC1CCCC1)S(=O)(=O)c1cccc(NCCO)c1)OC1COC2OCCC12` [Compound 36, (3R,3aS,6aR)hexahydrofuro[2,3-b]furan-3-yl N-(1S,2R)-1-benzyl-3-[(cyclopentyloxy)(3-[(2-hydroxyethyl)amino]phenylsulfonyl)amino]-2-hydroxypropylcarbamate and (3S,3aR,6aS)hexahydrofuro[2,3-b]furan-3-yl N-(1S,2R)-1-benzyl-3-[(cyclopentyloxy) (3-[(2-hydroxyethyl)amino]phenylsulfonyl)amino]-2-hydroxypropylcarbamate] are less than 1 nM and not above 100 nM.
In the same order, the values of `CC(C)COC(=O)N(CC(=O)NCCO)c1cccc(S(=O)(=O)N(CC(O)C(Cc2ccccc2)NC(=O)OC2COC3OCCC23)OC2CCCC2)c1` [Compound 37, (3R,3aS,6aR)hexahydrofuro[2,3-b]furan-3-yl N-(1S,2R)-1-benzyl-3-[(cyclopentyloxy)(3-[2-[(2-hydroxyethyl)amino]-2-oxoethyl(isobutoxycarbonyl)amino)phenylsulfonyl)amino]-2-hydroxypropylcarbamate and (3S,3aR,6aS)hexahydrofuro[2,3-b]furan-3-yl N-(1S,2R)-1-benzyl-3-[(cyclopentyloxy)(3-[2-[(2-hydroxyethyl)amino]-2-oxoethyl(isobutoxycarbonyl)amino]phenylsulfonyl)amino]-2-hydroxypropylcarbamate] are less than 1 nM and not above 100 nM.
Regarding `CC(C)ON(C[C@@H](O)[C@H](Cc1ccccc1)NC(=O)O[C@H]1CO[C@H]2OCC[C@H]21)S(=O)(=O)c1cccc(N)c1` [Compound 38], the Ki at HIV-1 protease is less than 1 nM. Moreover, the IC50 with HIV-1 (strain IIIB) was not above 100 nM.
In the same order, the values of `CS(=O)(=O)Nc1nc2cc(S(=O)(=O)N(C[C@@H](O)[C@H](Cc3ccccc3)NC(=O)O[C@@H]3CO[C@@H]4OCC[C@@H]43)OC3CCCC3)ccc2[nH]1` [Compound 39, (3S,3aR,6aS)Hexahydrofuro[2,3-b]furan-3-yl-N-((1S,2R)-1-benzyl-3-(cyclopentyloxy)(2-[(methylsulfonyl)amino]benzimidazol-5-ylsulfonyl)amino-2-hydroxypropyl)carbamate] are less than 1 nM and 100 to 500 nM.
Take `CS(=O)(=O)Nc1nc2cc(S(=O)(=O)N(C[C@@H](O)[C@H](Cc3ccccc3)NC(=O)O[C@H]3CO[C@H]4OCC[C@H]43)OC3CCCC3)ccc2[nH]1` [Compound 40, (3R,3aS,6aR)Hexahydrofuro[2,3-b]furan-3-yl-N-((1S,2R)-1-benzyl-3-(cyclopentyloxy)(2-[(methylsulfonyl)amino]benzimidazol-5-ylsulfonyl)amino-2-hydroxypropyl)carbamate]: the Ki at HIV-1 protease is less than 1 nM. Further, the IC50 in the experiment on HIV-1 (strain IIIB) is not above 100 nM.
With `O=C(N[C@@H](Cc1ccccc1)[C@H](O)CN(OC1CCCC1)S(=O)(=O)c1cccc(O)c1)O[C@H]1CO[C@H]2OCC[C@H]21` [Compound 44, (3R,3aS,6aR)hexahydrofuro[2,3-b]furan-3-yl N-((1S,2R)-1-benzyl-3-(cyclopentyloxy)[(3-hydroxyphenyl)sulfonyl]amino-2-hydroxypropyl)carbamate], the Ki at HIV-1 protease was less than 1 nM. In addition, the 50% inhibitory concentration (IC50) in the experiment with HIV-1 (strain IIIB) is not above 100 nM.
Take `CNc1cccc(S(=O)(=O)N(C[C@@H](O)[C@H](Cc2ccccc2)NC(=O)O[C@H]2CO[C@H]3OCC[C@H]32)OC2CCCC2)c1` [Compound 45, (3R,3aS,6aR)hexahydrofuro[2,3-b]furan-3-yl N-(1S,2R)-3-[[(3-N-methylaminophenyl)sulfonyl](cyclopentyloxy)amino]-1-benzyl-2-hydroxypropylcarbamate]: the inhibitory constant (Ki) on HIV-1 protease is less than 1 nM. In the experiment with HIV-1 (strain IIIB), the IC50 is not above 100 nM.
Taken in the same sequence, the figures for `O=C(N[C@@H](Cc1ccccc1)[C@H](O)CN(OC1CCCC1)S(=O)(=O)c1ccc2nc[nH]c2c1)O[C@H]1CO[C@H]2OCC[C@H]21` [Compound 46, (3R,3aS,6aR)hexahydrofuro[2,3-b]furan-3-yl N-(1S,2R)-3-[(1H-benzimidazol-6-ylsulfonyl)(cyclopentyloxy)amino]-1-benzyl-2-hydroxypropylcarbamate] were less than 1 nM and not above 100 nM.
With `COc1ccc(S(=O)(=O)N(C[C@@H](O)[C@H](Cc2ccccc2)NC(=O)O[C@H]2CCOC2)OC2CCCC2)cc1` [Compound 47, (3S)tetrahydro-3-furanyl N-((1S,2R)-1-benzyl-3-(cyclopentyloxy)[(4-methoxyphenyl)sulfonyl]amino-2-hydroxypropyl)carbamate], the Ki on HIV-1 protease is less than 1 nM. The IC50 in the experiment with HIV-1 (strain IIIB) was 500 to 1000 nM.
Regarding `COc1ccc(S(=O)(=O)N(C[C@@H](O)[C@H](Cc2ccccc2)NC(=O)OC2COCOC2)OC2CCCC2)cc1` [Compound 48, 1,3-dioxan-5-yl N-((1S,2R)-1-benzyl-3-(cyclopentyloxy)[(4-methoxyphenyl)sulfonyl]amino-2-hydroxypropyl)carbamate], at HIV-1 protease, the Ki was less than 1 nM. For the same molecule, the IC50 in the experiment on HIV-1 (strain IIIB) was in the range of 100 to 500 nM.
Taken in the same sequence, the figures for `NC(=O)C[C@H](NC(=O)c1ccc2ccccc2n1)C(=O)N[C@@H](Cc1ccccc1)[C@H](O)CN(OC1CCCC1)S(=O)(=O)c1cccc(N)c1` [Compound 49, (2S)-N^1-(1S,2R)-3-[[(3-aminophenyl)sulfonyl](cyclopentyloxy)amino]-1-benzyl-2-hydroxypropyl-2-[(2-quinolinylcarbonyl)amino]butanediamide] were less than 1 nM and not above 100 nM.
In the same order, the values of `COc1ccc(S(=O)(=O)N(C[C@@H](O)[C@H](Cc2ccccc2)NC(=O)[C@H](CC(N)=O)NC(=O)c2ccc3ccccc3n2)OC2CCCC2)cc1` [Compound 50] are less than 1 nM and not above 100 nM.
In the same order, the values of `COC(=O)Nc1nc2cc(S(=O)(=O)N(C[C@@H](O)[C@H](Cc3ccccc3)NC(=O)[C@H](CC(N)=O)NC(=O)c3ccc4ccccc4n3)OC3CCCC3)ccc2[nH]1` [Compound 51, (2S)-4-Amino-4-oxo-2-[(2-quinolinylcarbonyl)amino]butanamido N-(1S,2R)-1-benzyl-3-[(cyclopentyloxy)(2-{(methoxycarbonyl)amino]-1H-benzimidazol-5-ylsulfonyl)amino]-2-hydroxypropylcarbamate] are less than 1 nM and 100 to 500 nM.
